The source of these data is patent US20070185167A1, “SODIUM SALTS OF 5-[4-[2-(N-METHYL-N-(2-PYRIDYL)AMINO)ETHOXY]BENZYL]THIAZOLIDINE-2,4-DIONE” (SmithKline Beecham p.l.c., priority 2000, published 2007).

The conditions of series [1]: especially under humid conditions.
For series [2] the following is noted: 25° C and 75% relative humidity, approximately constant weight. The source says: For the avoidance of doubt when used herein the terms “non-hygroscopic”, “slightly hygroscopic”, “moderately hygroscopic” and “very hygroscopic” are to have the meanings defined by the above mentioned criteria.

For the molecule `CN(CCOc1ccc(CC2SC(=O)NC2=O)cc1)c1ccccn1.[Na]` (centres unmarked) [Sodium Salt, 5-[4-[2-(N-Methyl-N-(2-pyridyl)amino)ethoxy]benzyl]thiazolidine-2,4-dione, Sodium Salt], the solid state stability result in series [1] was “good solid state stability”. For the same molecule, the “hygroscopicity classification (% weight gain)” value in series [2] is “non-hygroscopic (<2%)”.
